Laboratory results reported in PubChem BioAssay AID248 (DTP/NCI, 2004).
Several values for one entry are separate records, joined by “and”; a condition that tells them apart may be missing. Equal entries are not always repeated. Inconclusive results and toxic doses are left out. Rule as the data show it: active = T/C of 150% or more; inactive = T/C below 125%.

System: L1210 leukemia ip in BDF1 mice, survival T/C
Assay: NCI In Vivo Anticancer Drug Screen. Data for tumor model L1210 Leukemia (intraperitoneal) in B6D2F1 (BDF1) mice
Conditions: higher = longer survival
How it was run: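 Ratio derived from survival: compound-dosed mice over vehicle-dosed mice, all bearing a transplantable tumor.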

[1] = endpoint: mean survival time, dose: 100.0 mg/kg/injection, schedule: Q04DX003 (ip), vehicle: saline
[2] = endpoint: mean survival time, dose: 200.0 mg/kg/injection, schedule: Q04DX003 (ip), vehicle: saline
[3] = endpoint: mean survival time, dose: 400.0 mg/kg/injection, schedule: Q04DX003 (ip), vehicle: saline
[4] = endpoint: mean survival time, dose: 100.0 mg/kg/injection, schedule: Q04DX003 (ip), vehicle: Klucel (hydroxypropylcellulose) (HPC)
[5] = endpoint: mean survival time, dose: 200.0 mg/kg/injection, schedule: Q04DX003 (ip), vehicle: Klucel (hydroxypropylcellulose) (HPC)
[6] = endpoint: mean survival time, dose: 400.0 mg/kg/injection, schedule: Q04DX003 (ip), vehicle: Klucel (hydroxypropylcellulose) (HPC)
[7] = endpoint: mean survival time, dose: 100.0 mg/kg/injection, schedule: Q01DX009 (ip), vehicle: Klucel (hydroxypropylcellulose) (HPC)
[8] = endpoint: mean survival time, dose: 200.0 mg/kg/injection, schedule: Q01DX009 (ip), vehicle: Klucel (hydroxypropylcellulose) (HPC)
[9] = endpoint: mean survival time, dose: 100.0 mg/kg/injection, schedule: Q01DX001 (ip), vehicle: saline
[10] = endpoint: mean survival time, dose: 200.0 mg/kg/injection, schedule: Q01DX001 (ip), vehicle: saline
[11] = endpoint: mean survival time, dose: 50.0 mg/kg/injection, schedule: Q01DX001 (ip), vehicle: carboxymethylcellulose (CMC)
[12] = endpoint: mean survival time, dose: 100.0 mg/kg/injection, schedule: Q01DX001 (ip), vehicle: carboxymethylcellulose (CMC)
[13] = endpoint: mean survival time, dose: 200.0 mg/kg/injection, schedule: Q01DX001 (ip), vehicle: carboxymethylcellulose (CMC)
[14] = endpoint: mean survival time, dose: 400.0 mg/kg/injection, schedule: Q01DX001 (ip), vehicle: carboxymethylcellulose (CMC)
[15] = endpoint: mean survival time, dose: 200.0 mg/kg/injection, schedule: Q04DX003 (ip), vehicle: saline with Tween-80

Measured: T/C

CCNC(=O)CS(=O)(=O)c1ccc(N)cc1
inactive: [1] 100 % of control | [2] 108 % of control | [3] 105 % of control

COC(=N)c1ccc(O)c(C)c1
inactive: [1] 99 % of control | [2] 94 % of control | [3] 88 % of control

Cc1ccc(NC(=O)C(Cl)(Cl)Cl)cc1C
inactive: [4] 93 % of control | [5] 101 % of control | [6] 90 % of control

CCc1c(Cl)nc(N)nc1Nc1ccc(C)c(C)c1
inactive: endpoint: mean survival time, dose: 100.0 mg/kg/injection, schedule: Q01DX Z (ip), vehicle: methylcellulose (MC) 91 % of control | endpoint: mean survival time, dose: 200.0 mg/kg/injection, schedule: Q01DX Z (ip), vehicle: methylcellulose (MC) 93 % of control

CCCCCCCC(=O)OCC(=O)[C@]1(O)Cc2c(O)c3c(c(O)c2[C@@H](OC2CC(N)C(O)C(C)O2)C1)C(=O)c1c(OC)cccc1C3=O (stereo not given in full)
inactive: endpoint: median survival time, dose: 0.25 mg/kg/injection, schedule: Q03HX024 (ip), vehicle: water 110 % of control | endpoint: median survival time, dose: 1.0 mg/kg/injection, schedule: Q03HX024 (ip), vehicle: water 109 % of control | endpoint: median survival time, dose: 1.0 mg/kg/injection, schedule: Q04DX003 (ip), vehicle: water 115 % of control | endpoint: median survival time, dose: 2.0 mg/kg/injection, schedule: Q03HX008 (ip), vehicle: water 114 % of control | endpoint: median survival time, dose: 2.0 mg/kg/injection, schedule: Q04DX003 (ip), vehicle: water 124 % of control | endpoint: median survival time, dose: 2.5 mg/kg/injection, schedule: Q01DX001 (ip), vehicle: water 121 % of control | endpoint: median survival time, dose: 2.5 mg/kg/injection, schedule: Q08DX002 (ip), vehicle: water 101 % of control | endpoint: median survival time, dose: 4.0 mg/kg/injection, schedule: Q01DX009 (ip), vehicle: water 88 % of control | endpoint: median survival time, dose: 4.0 mg/kg/injection, schedule: Q04DX003 (ip), vehicle: water 111 % of control | endpoint: median survival time, dose: 5.0 mg/kg/injection, schedule: Q08DX002 (ip), vehicle: water 121 % of control | endpoint: median survival time, dose: 10.0 mg/kg/injection, schedule: Q01DX001 (ip), vehicle: water 121 % of control | endpoint: median survival time, dose: 10.0 mg/kg/injection, schedule: Q08DX002 (ip), vehicle: water 121 % of control | endpoint: median survival time, dose: 20.0 mg/kg/injection, schedule: Q08DX002 (ip), vehicle: water 96 % of control

COc1cc2c(cc1OC)C1=CC(=O)N3CCCC34OS(=O)OC14CC2 (stereo not given)
inactive: [7] 97 % of control | [4] 98 % of control | [8] 100 % of control | [5] 96 % of control | endpoint: mean survival time, dose: 400.0 mg/kg/injection, schedule: Q01DX009 (ip), vehicle: Klucel (hydroxypropylcellulose) (HPC) 96 % of control | [6] 96 % of control

CN(C)c1ccc(C=Nc2cc([N+](=O)[O-])ccc2O)cc1
inactive: [9] 96 % of control | [10] 92 % of control | endpoint: mean survival time, dose: 400.0 mg/kg/injection, schedule: Q01DX001 (ip), vehicle: saline 91 % of control

CN=NNc1nc[nH]c1C(=O)OC
inactive: [11] 118 % of control | [12] 118 % of control | [13] 118 % of control | [14] 113 % of control

O=[N+]([O-])c1ccc2[nH]c(=S)[nH]c2c1
inactive: [1] 98 % of control | [2] 103 % of control | [3] 95 % of control

CCc1cccc(CC)c1N=Cc1ccccc1O
inactive: endpoint: mean survival time, dose: 100.0 mg/kg/injection, schedule: Q01DX009 (ip), vehicle: carboxymethylcellulose (CMC) 98 % of control and 102 % of control | endpoint: mean survival time, dose: 100.0 mg/kg/injection, schedule: Q04DX002 (ip), vehicle: carboxymethylcellulose (CMC) 93 % of control and 101 % of control | endpoint: mean survival time, dose: 100.0 mg/kg/injection, schedule: Q04DX003 (ip), vehicle: carboxymethylcellulose (CMC) 98 % of control | endpoint: mean survival time, dose: 200.0 mg/kg/injection, schedule: Q01DX009 (ip), vehicle: carboxymethylcellulose (CMC) 93 % of control and 98 % of control | endpoint: mean survival time, dose: 200.0 mg/kg/injection, schedule: Q04DX002 (ip), vehicle: carboxymethylcellulose (CMC) 96 % of control and 102 % of control | endpoint: mean survival time, dose: 200.0 mg/kg/injection, schedule: Q04DX003 (ip), vehicle: carboxymethylcellulose (CMC) 102 % of control | endpoint: mean survival time, dose: 400.0 mg/kg/injection, schedule: Q01DX009 (ip), vehicle: carboxymethylcellulose (CMC) 95 % of control | endpoint: mean survival time, dose: 400.0 mg/kg/injection, schedule: Q04DX002 (ip), vehicle: carboxymethylcellulose (CMC) 93 % of control and 96 % of control | endpoint: mean survival time, dose: 400.0 mg/kg/injection, schedule: Q04DX003 (ip), vehicle: carboxymethylcellulose (CMC) 104 % of control

Brc1cscc1Cc1ccccc1
inactive: endpoint: mean survival time, dose: 50.0 mg/kg/injection, schedule: Q01DX009 (ip), vehicle: saline with Tween-80 95 % of control | endpoint: mean survival time, dose: 100.0 mg/kg/injection, schedule: Q01DX009 (ip), vehicle: saline with Tween-80 95 % of control | endpoint: mean survival time, dose: 200.0 mg/kg/injection, schedule: Q01DX009 (ip), vehicle: saline with Tween-80 95 % of control

COC1OCC(NC(=O)C(F)(F)F)C(OC(C)=O)C1OC(C)=O (stereo not given)
inactive: [11] 94 % of control | [12] 100 % of control | [13] 105 % of control | [14] 100 % of control

Cc1cccc(C)c1N=C(N)NN
inactive: endpoint: mean survival time, dose: 25.0 mg/kg/injection, schedule: Q01DX009 (ip), vehicle: saline 100 % of control | endpoint: mean survival time, dose: 50.0 mg/kg/injection, schedule: Q01DX009 (ip), vehicle: saline 101 % of control | endpoint: mean survival time, dose: 50.0 mg/kg/injection, schedule: Q04DX003 (ip), vehicle: saline 117 % of control | [9] 96 % of control | endpoint: mean survival time, dose: 100.0 mg/kg/injection, schedule: Q01DX009 (ip), vehicle: saline 95 % of control | [1] 106 % of control | [10] 98 % of control

Oc1c(-c2ccccc2)n[nH]c1-c1ccccc1
inactive: endpoint: mean survival time, dose: 50.0 mg/kg/injection, schedule: Q01DX009 (ip), vehicle: Klucel (hydroxypropylcellulose) (HPC) 98 % of control | [7] 98 % of control | [8] 94 % of control

OCCN1C(c2ccccc2)C1c1ccccc1 (stereo not given)
inactive: endpoint: mean survival time, dose: 100.0 mg/kg/injection, schedule: Q04DX003 (ip), vehicle: saline with Tween-80 102 % of control | [15] 93 % of control | endpoint: mean survival time, dose: 400.0 mg/kg/injection, schedule: Q04DX003 (ip), vehicle: saline with Tween-80 97 % of control

Cc1nc(-c2ccc3ccc4cccnc4c3n2)no1
inactive: endpoint: mean survival time, dose: 50.0 mg/kg/injection, schedule: Q04DX003 (ip), vehicle: saline with Tween-80 93 % of control | [15] 86 % of control

Nc1ccc2c(c1)OCO2
inactive: endpoint: mean survival time, dose: 90.0 mg/kg/injection, schedule: Q04DX003 (sc), vehicle: olive oil, sesame oil, peanut oil 106 % of control | endpoint: mean survival time, dose: 100.0 mg/kg/injection, schedule: Q01DX009 (sc), vehicle: olive oil, sesame oil, peanut oil 107 % of control | endpoint: mean survival time, dose: 100.0 mg/kg/injection, schedule: Q04DX003 (sc), vehicle: olive oil, sesame oil, peanut oil 101 % of control | endpoint: mean survival time, dose: 133.0 mg/kg/injection, schedule: Q04DX003 (sc), vehicle: olive oil, sesame oil, peanut oil 119 % of control | endpoint: mean survival time, dose: 200.0 mg/kg/injection, schedule: Q01DX009 (sc), vehicle: olive oil, sesame oil, peanut oil 112 % of control | endpoint: mean survival time, dose: 400.0 mg/kg/injection, schedule: Q04DX003 (sc), vehicle: olive oil, sesame oil, peanut oil 108 % of control

NNc1cc(Cl)ccc1Cl
inactive: endpoint: mean survival time, dose: 100.0 mg/kg/injection, schedule: Q04DX002 (ip), vehicle: Klucel (hydroxypropylcellulose) (HPC) 96 % of control | endpoint: mean survival time, dose: 200.0 mg/kg/injection, schedule: Q04DX002 (ip), vehicle: Klucel (hydroxypropylcellulose) (HPC) 96 % of control | endpoint: mean survival time, dose: 400.0 mg/kg/injection, schedule: Q04DX002 (ip), vehicle: Klucel (hydroxypropylcellulose) (HPC) 100 % of control
